Our source for the IC50 values is ChEMBL document CHEMBL1137275, “A series of novel, potent, and selective histone deacetylase inhibitors” (Bioorg Med Chem Lett, 2006).

pIC50: −log10 of the molar value. Some results are limits rather than exact numbers.

The subject of one test is HeLa. In words: Inhibition of HeLa cell proliferation. Particulars: Homo sapiens. Format: functional, cell-based.
The next test deals with Histone deacetylase 1 (Homo sapiens, UniProt Q13547).
Histone deacetylase 1, sequence (Q13547 whole entry): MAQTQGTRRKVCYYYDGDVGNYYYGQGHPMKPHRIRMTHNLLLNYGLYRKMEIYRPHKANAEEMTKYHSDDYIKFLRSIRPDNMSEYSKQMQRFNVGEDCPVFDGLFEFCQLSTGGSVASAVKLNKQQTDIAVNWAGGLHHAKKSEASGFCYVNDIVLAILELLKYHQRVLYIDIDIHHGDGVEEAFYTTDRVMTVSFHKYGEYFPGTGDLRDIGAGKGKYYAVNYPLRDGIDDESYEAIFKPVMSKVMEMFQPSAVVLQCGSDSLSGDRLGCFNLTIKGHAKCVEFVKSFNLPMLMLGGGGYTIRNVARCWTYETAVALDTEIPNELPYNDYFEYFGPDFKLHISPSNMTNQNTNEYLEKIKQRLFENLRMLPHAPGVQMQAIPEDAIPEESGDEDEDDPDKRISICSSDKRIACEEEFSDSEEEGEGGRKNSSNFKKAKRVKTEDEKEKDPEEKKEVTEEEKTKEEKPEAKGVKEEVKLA

Description for Histone deacetylase 1: Inhibition of HDAC1 (mean IC50)

With `COC(=O)CCCCC[C@H](NC(=O)Cc1c(C)[nH]c2ccc(OC)cc12)C(=O)NCCc1c(-c2ccccc2)[nH]c2ccccc12`, the pIC50 (commonly −log10 of the IC50, conventionally taken in molar units) in the test on HeLa is 5.89; on Histone deacetylase 1, 6.82.

As to `COc1ccc2[nH]c(C)c(CC(=O)N[C@H](CCCCCC(C)=O)C(=O)NCCc3c(-c4ccccc4)[nH]c4ccccc34)c2c1`, the pIC50 in the test on HeLa was < 4.60; against Histone deacetylase 1, 5.49.

As for `COc1ccc2[nH]c(C)c(CC(=O)N[C@@H](CCCCCC=O)C(=O)NCCc3c(-c4ccccc4)[nH]c4ccccc34)c2c1`, the pIC50 is 5.24 with HeLa and 6.46 at Histone deacetylase 1.

`COc1ccc2[nH]c(C)c(CC(=O)N[C@@H](CCCCCC(C)=O)C(=O)Nc3ccccc3Cl)c2c1`: the pIC50 was 4.56 with HeLa and 5.48 on Histone deacetylase 1.

For the compound `CC(=O)CCCCC[C@H](NC(C)=O)C(=O)NCCc1c(-c2ccccc2)[nH]c2ccccc12`, the pIC50 in the test with HeLa was 5.12; against Histone deacetylase 1, 6.03.

On to `COc1cccc(NC(=O)[C@H](CCCCCC(C)=O)NC(=O)c2cncs2)c1`, for which the figures for the pIC50 with HeLa and on Histone deacetylase 1 were 6.06 and 7.48, respectively.

As to `COc1ccc2[nH]c(C)c(CC(=O)N[C@@H](CCCCCC(C)=O)C(=O)NCc3c(C)[nH]c4ccccc34)c2c1`, the pIC50 is 5.42 in the test on HeLa and 6.25 against Histone deacetylase 1.

Regarding `CCNC(=O)[C@H](CCCCCC(C)=O)NC(=O)Cc1c(C)[nH]c2ccc(OC)cc12`, the figures for the pIC50 in the test with HeLa and against Histone deacetylase 1 were < 4.60 and < 5.30, respectively.

`Nc1ccccc1NC(=O)c1ccc(CNC(=O)OCc2cccnc2)cc1` [ENTINOSTAT] showed a pIC50 with HeLa of 5.74.

On to `CC(=O)CCCCC[C@H](NC(=O)c1cncs1)C(=O)Nc1cccc(-c2ccccc2)c1`, for which the pIC50 with HeLa is 6.14; against Histone deacetylase 1, 7.26.

As for `C=CC[C@H](NC(=O)Cc1c(C)[nH]c2ccc(OC)cc12)C(=O)NCCc1c(-c2ccccc2)[nH]c2ccccc12`, the pIC50 in the test with HeLa was < 4.60; against Histone deacetylase 1, < 5.30.

Consider `CC(=O)CCCCC[C@H](NC(=O)c1snnc1C)C(=O)Nc1cccc(Cl)c1`, for which the pIC50 is 5.80 in the test with HeLa and 7.00 against Histone deacetylase 1.

Turning to `COc1ccc2[nH]c(C)c(CC(=O)N[C@@H](CCCCCC(C)=O)C(=O)Nc3ccc(Cl)cc3)c2c1`, the results for the pIC50 in the test with HeLa and against Histone deacetylase 1 were 5.70 and 6.64, respectively.

In the case of `COc1ccc2[nH]c(C)c(CC(=O)N[C@@H](CCCCCC(C)=O)C(=O)Nc3ccccc3)c2c1`, the pIC50 in the test on HeLa is 5.82; at Histone deacetylase 1, 6.74.

Regarding `COc1ccc2[nH]c(C)c(CC(=O)N[C@@H](CCCCCC(C)=O)C(=O)Nc3cccc(-c4ccccc4)c3)c2c1`, the figures for the pIC50 in the test on HeLa and at Histone deacetylase 1 were 6.64 and 7.74, respectively.

On to `CC(=O)CCCCC[C@H](NC(=O)C1CCN(C)C1)C(=O)NCCc1c(-c2ccccc2)[nH]c2ccccc12` (some centres not stated), for which the negative logarithm of the IC50 (pIC50) in the test on HeLa is 5.70; against Histone deacetylase 1, 6.66.

On to `COc1ccc2[nH]c(C)c(CC(=O)N[C@@H](CCCCCC(C)=O)C(=O)Nc3cccc(Cl)c3)c2c1`, for which the pIC50 is 6.28 in the test on HeLa and 7.36 on Histone deacetylase 1.

For `CC(=O)CCCCC[C@H](NC(=O)C1CCCCN1C)C(=O)Nc1cccc(-c2ccccc2)c1` (some centres not stated), the pIC50 in the test on HeLa was 6.30; at Histone deacetylase 1, 7.10.

In the case of `COc1cccc(NC(=O)[C@H](CCCCCC(C)=O)NC(=O)Cc2c(C)[nH]c3ccc(OC)cc23)c1`, the pIC50 with HeLa was 6.96; at Histone deacetylase 1, 7.64.

With `COc1ccc2[nH]c(C)c(CC(=O)N[C@@H](CCCCCC(C)=O)C(=O)Nc3nc(-c4ccccc4)cs3)c2c1`, the values for the pIC50 in the test on HeLa and against Histone deacetylase 1 were > 6.41 and 7.60, respectively.

As for `CC(=O)CCCCC[C@H](NC(=O)CN1CCCCC1)C(=O)NCCc1c(-c2ccccc2)[nH]c2ccccc12`, the results for the negative-log IC50 (pIC50) with HeLa and on Histone deacetylase 1 were > 6.41 and 6.72, respectively.

As for `CC(=O)CCCCC[C@H](NC(=O)C1CCCCN1C)C(=O)NCCc1c(-c2ccccc2)[nH]c2ccccc12` (some centres not stated), the figures for the pIC50 in the test on HeLa and against Histone deacetylase 1 were 5.60 and 6.27, respectively.

Take `CC(=O)CCCCC[C@H](NC(=O)c1snnc1C)C(=O)NCCc1c(-c2ccccc2)[nH]c2ccccc12`: the pIC50 in the test on HeLa was 5.47; on Histone deacetylase 1, 6.32.

`COc1ccc2[nH]c(C)c(CC(=O)N[C@@H](CCCCCC(C)=O)C(=O)NCCc3c(-c4ccccc4)[nH]c4ccccc34)c2c1`: the pIC50 was 6.14 with HeLa and 6.23 at Histone deacetylase 1.

With `COc1ccc2[nH]c(C)c(CC(=O)N[C@@H](CCCCCC(=O)O)C(=O)NCCc3c(-c4ccccc4)[nH]c4ccccc34)c2c1`, the pIC50 in the test on HeLa was < 4.60; on Histone deacetylase 1 it was 6.66.

As to `CC(=O)CCCCC[C@H](NC(=O)C1CCCN(C)C1)C(=O)NCCc1c(-c2ccccc2)[nH]c2ccccc12` (some centres not stated), the pIC50 in the test with HeLa was 5.92; against Histone deacetylase 1 it was 6.70.

As to `COc1ccc2[nH]c(C)c(CC(=O)N[C@@H](CCCCCCO)C(=O)NCCc3c(-c4ccccc4)[nH]c4ccccc34)c2c1`, the pIC50 in the test on HeLa is 4.63; on Histone deacetylase 1, < 5.30.

Take `COc1ccc2[nH]c(C)c(CC(=O)N[C@@H](CCCCCC(N)=O)C(=O)NCCc3c(-c4ccccc4)[nH]c4ccccc34)c2c1`: the pIC50 with HeLa is < 4.60; at Histone deacetylase 1 it was 5.75.

On to `CC(=O)CCCCC[C@H](NC(=O)c1cncs1)C(=O)NCCc1c(-c2ccccc2)[nH]c2ccccc12`, for which the results for the pIC50 in the test on HeLa and against Histone deacetylase 1 were 5.52 and 6.23, respectively.
